Measurements reported in patent publication US12065427B2, “Heterocyclic compounds capable of activating STING” (BOEHRINGER INGELHEIM INTERNATIONAL GMBH, priority 2021, dated 2024).

Columns and labels:
[1] = system: Human STING (hSTING, residues 155-341); test: Interaction with hSTING as determined by Differential Scanning Fluorimetry (DSF); type: binding; settings: 100 μM test compounds, 5 μM target protein
Method: Interaction with hSTING as Determined by Differential Scanning Fluorimetry (DSF)
In DSF, the temperature at which a protein unfolds, also called the melting temperature Tm, is measured by changes in fluorescence of a dye that binds to the hydrophobic parts of the protein. Tm shifts upon binding of a small molecule are correlated with the binding affinity of this small molecule. As target protein, Human STING (hSTING, residues 155-341, MW: 21578.4 Da; protein stock solution: c=1302 μM stock solution in 20 mM Tris, 100 mM NaCl, 2 mM TCEP pH 8.8) was used, as assay buffer 20 mM Tris, 150 mM NaCI pH7.5 was added where and as necessary.
Final concentrations of components in assay: 100 μM test compounds, 5 μM target protein, “5×” SYPR Orange (from stock solution SYPRO orange solution in DMSO (invitrogen cat.-no. S6650-500 ul), concentration “5000×”)
1) Dilutions of compound stock solutions (10 mM in DMSO) were prepared in assay buffer (20 mM Tris, 150 mM NaCl; pH7.5)
2) 5 μl fluorescent dye stock solution (5000×SYPRO Orange in DMSO) was mixed with 19 μl target protein (1302 μM) and 976 μl assay buffer.
3) 2 μl of this protein-dye-mixture (25×SYPRO Orange and 25 μM Protein) was added to 8 μl diluted compound solution as prepared in step 1. Final volume was 10 μl.
4) With every 20 compounds, two negative controls were measured.
5) The plates were prepared for duplicate measurement and centrifuged for 2 min at 1000 g.
6) For the measurement, a CFX384 Real-Time System (Bio-Rad) was used. The run consisted of 140 cycles with 0.5° C./cycle (temperature ramp 15 s/cycle, 25° C. to 95° C.).
Data analysis: The melting curves were processed in Bio-Rad CFX Manager. Peak type was set to “negative”. Two replicates of TM (melting temperature) measurements were averaged and the standard deviation was calculated.

STING HAQ-variant = biological target: T1, STING HAQ-variant (Homo sapiens, UniProt Q86WV6, G230A/H232R/R293Q/R71H); test: IRF-inducible SEAP reporter assay in THP1-Blue ISG cells, STING HAQ-variant; type: cell-based; settings: STING HAQ-variant (parental or re-introduced), 24 hours incubation
T1 construct: parental THP1-Blue™ ISG cell lines (which express endogenously HAQ); host or cells: THP1-Blue ISG (parental, endogenous HAQ) or STING-KO clone re-transduced with HAQ (MSCV-ires-GFP-Blasti)
T1 sequence (Q86WV6 whole entry R71H/G230A/H232R/R293Q): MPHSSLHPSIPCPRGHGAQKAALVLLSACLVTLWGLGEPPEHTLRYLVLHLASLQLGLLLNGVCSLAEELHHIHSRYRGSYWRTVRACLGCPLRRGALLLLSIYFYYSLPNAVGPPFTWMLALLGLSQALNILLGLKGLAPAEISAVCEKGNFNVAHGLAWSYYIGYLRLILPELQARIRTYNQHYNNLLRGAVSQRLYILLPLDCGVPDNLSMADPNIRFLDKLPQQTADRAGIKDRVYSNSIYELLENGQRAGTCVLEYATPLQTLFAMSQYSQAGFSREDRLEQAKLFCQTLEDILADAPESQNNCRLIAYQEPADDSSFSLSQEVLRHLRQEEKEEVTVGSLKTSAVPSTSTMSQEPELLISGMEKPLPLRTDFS
Text: In Vitro Cytokine Induction Measured Via Activation of an Interferon Regulatory Factor Inducible Reporter Gene
Activation of the STING protein expressed in cell lines results in an increase of interferon production. By the stable integration of an interferon regulatory factor (IRF)-inducible SEAP gene (secreted embryonic alkaline phosphatase) reporter construct the functional interferon signaling pathway can be monitored. Using Invivogen's THP1-Blue™ ISG colorimetric enzyme assay and a suitable optical density (OD) reader the activity of SEAP can be detected and quantified. This technique could be used to characterize pharmacological modification of the STING pathway.
Several single nucleotide polymorphisms have been identified in the human STING gene. To determine the activity of the above described compounds, THP1-Blue™ ISG reporter cell lines expressing the different human STING variants have been generated. To do so, the endogenous human STING was first deleted using the CRISPR/CAS9 system: THP1-Blue ISG cells were electroporated with ALL-IN-ONE CRISPR plasmids targeting the STING gene (purchased from Sigma encoding the gRNA and GFP as a reporter gene for successful transduction). GFP positive cells then were sorted 24 h post transfection and expanded. Cells were then dispersed in semisolid methocel medium to allow single cell clone isolations. Clones were then screened for cGAMP responsiveness using the Quanti-Blue™ reporter assay. Non-responsive clones were subsequently analysed for STING loss by western blotting and sequencing of the STING locus.
For the overexpression of the human STING variants, a confirmed THP1-Blue™ ISG hSTING KO clone was transduced with individual retroviral plasmids (MSCV-ires-GFP-Blasti) encoding the allelic variants of hSTING (WT (H232R), HAQ, R232H, AQ and R293Q). Transduced cells were sorted for different levels of GFP fluorescence and STING allele expression was analysed by western blot.
Measurements of SEAP activity were performed in THP1-Blue™ ISG cells stably expressing the different human STING isoforms and the IRF-inducible SEAP reporter construct. Cells were cultivated in RPMI1640 medium with 10% fetal calf serum, 50 μg/ml Penicillin-Streptomycin, 100 μg/ml Zeocin, and 100 μg/ml Normocin in a 37°, 95% humidity and 5% CO2 incubator.
In preparation for the assay, the cells were distributed into the assay plates with a density of 10000 cells/15 μL per well. Compounds were prepared by an 8 point serial dilution in 50% aqueous DMSO and a final dilution step into medium to ensure a final DMSO concentration of 0.5% in the assay. 5 μL of diluted compounds were added to the plates, followed by a 24 hours incubation at 37° C.
At the day of the assay, 75 μl per well of Quanti-Blue™ reagent was added to all wells of the plate and the plate was incubated another 30 minutes at 37° C. The OD at 620 nm was measured on the EnVision reader (PerkinElmer).
EC50 values and Hill slopes were derived from 8-point four parametric non-linear curve fittings with the Megalab software (Boehringer Ingelheim) using the OD at 620 nm.
Data of EC50 values can be found in tables 2a-2e.
Data of EC50 values on STING HAQ-variant can be found in table 2a. Shown data below were either derived from the parental THP1-Blue™ ISG cell lines (which express endogenously HAQ) or from genetically engineered THP1-Blue™ ISG cell lines in which first STING has been knocked-out and the HAQ specific STING isoform has been re-introduced as described above.

in vitro = settings: human, Caco-2, pH 7.4

Row | SMILES | thermal shift (ΔTm) [1] [K] | EC50 (STING HAQ-variant) [µM] | Papp A→B at 10 μM (in vitro) [×10⁻⁶ cm/s] | efflux ratio at 10 μM (in vitro)
1 | CC(=O)N(C)C1CCN(c2ccc(-n3nc(-c4cccc5nn(C)cc45)c4cccc(C)c43)cn2)C1 (stereo not shown) [Example #6, N-[1-(5-{2′,7-dimethyl-1H,2′H-[3,4′-biindazol]-1-yl}pyridin-2-yl)pyrrolidin-3-yl]-N-methylacetamide] | 22 | 3.1 | 39 | 0.4
2 | Cc1cccc2c(-c3cccc4nn(C)cc34)nn(-c3ccc(N4CCCN(C=O)CC4)nc3)c12 [compound 52, 4-(5-{2′,7-dimethyl-1H,2′H-[3,4′-biindazol]-1-yl}pyridin-2-yl)-1,4-di-azepane-1-carbalde-hyde] | 21 | 1.9 | – | 0.4
3 | C#Cc1cccc2c(-c3cccc4nn(C)cc34)nn(-c3ccc(N4CC5C(C4)C5C(=O)O)nc3)c12 (stereo not shown) [Example #74, 3-(5-{7-ethynyl-2′-methyl-1H,2′H-[3,4′-biindazol]-1-yl}pyridin-2-yl)-3-azabicyclo[3.1.0]hexane-6-carboxylic acid] | 16 | 4.3 | – | –
4 | COCCNc1ccc(-n2nc(-c3cccc4nn(C)cc34)c3cccc(C)c32)cn1 [compound 14, 5-{2′,7-dimethyl-1H,2′H-[3,4′-biindazol]-1-yl}-N-(2-methoxyethyl)pyridin-2-amine] | 18 | 6.9 | 39 | 0.3
5 | Cc1cccc2c(-c3cccc4nn(C)cc34)nn(-c3ccc(N4CCN5C(=O)OCC5C4)nc3)c12 (stereo not shown) [compound 8, 7-(5-{2′,7-dimethyl-1H,2′H-[3,4′-biindazol]-1-yl}pyri-din-2-yl)-hexahydro-1H-[1,3]oxazolo[3,4-a]pyrazin-3-one] | 21 | 1.2 | – | –
6 | Cc1cccc2c(-c3cccn4nccc34)nn(-c3ccc(N4CCC(C(=O)O)CC4)nc3)c12 [compound 60, 1-[5-(7-methyl-3-{pyra-zolo[1,5-a]pyridin-4-yl}-1H-indazol-1-yl)pyridin-2-yl]piperidine-4-carboxylic acid] | – | 6.6 | 19 | 0.9
7 | Cc1cccc2c(-c3cccc4nn(C)cc34)nn(-c3ccc(N4CCC(c5cnn(C)c5)CC4)nc3)c12 [compound 20, 2′,7-dimethyl-1-{6-[4-(1-methyl-1H-pyrazol-4-yl)pi-peridin-1-yl]pyridin-3-yl}-1H,2′H-3,4′-biindazole] | 20 | 2.2 | – | 0.8
8 | Cc1cccc2c(-c3cccc4nn(C)cc34)nn(-c3ccc(N4CC5(CCS(=O)(=O)CC5)C4)nc3)c12 [compound 4, 2-(5-{2′,7-dimethyl-1H,2′H-[3,4′-biindazol]-1-yl}pyri-din-2-yl)-7λ^6-thia-2-azaspiro[3.5]nonane-7,7-dione] | 20 | 1.1 | – | –
9 | Cc1cccc2c(-c3cccc4nn(C)cc34)nn(-c3ccc(N4CCCNCC4)nc3)c12 [compound 45, 1-(6-(1,4-diazepan-1-yl)pyridin-3-yl)-2′,7-dimethyl-1H,2′H-3,4′-biindazole] | 19 | 1.9 | – | –
10 | Cc1cccc2c(-c3cccc4nn(C)cc34)nn(-c3ccc(N4CCC(C)(C(=O)O)CC4)nc3)c12 [compound 27, 1-(5-{2′,7-dimethyl-1H,2′H-[3,4′-biindazol]-1-yl}pyri-din-2-yl)-4-methylpiperi-dine-4-carboxylic acid] | 22 | 5.2 | 32 | 0.5
11 | COC(=O)c1ccc2c(-c3cccc4nn(C)cc34)nn(-c3ccc(N4CCC(S(C)(=O)=O)CC4)nc3)c2c1C [compound 25, methyl 1-[6-(4-meth-anesulfonylpiperidin-1-yl)pyridin-3-yl]-2′,7-di-methyl-1H,2′H-[3,4′-biindazole]-6-carboxylate] | 25 | 0.2 | – | –
12 | CCOC(=O)C1CCN(c2ccc(-n3nc(-c4cccc5nn(C)cc45)c4cccc(C)c43)cn2)CC1 [compound 31, ethyl 1-(5-{2′,7-dimethyl-1H,2′H-[3,4′-biindazol]-1-yl}pyridin-2-yl)piperidine-4-carboxylate] | – | 5.4 | – | 0.6
13 | Cc1cccc2c(-c3cccc4nn(C)cc34)nn(-c3ccc(N4CC5CC4CO5)nc3)c12 (stereo not shown) [compound 11, 2′,7-dimethyl-1-(6-{2-oxa-5-azabicyclo[2.2.1]heptan-5-yl}pyridin-3-yl)-1H,2′H-3,4′-biindazole] | 21 | 3.2 | 27 | 0.3
14 | Cc1cccc2c(-c3cccc4nn(C)cc34)nn(-c3ccc(-c4ccc(S(C)(=O)=O)cc4)nc3)c12 [compound 73, 1-[6-(4-methanesulfonylphenyl)pyridin-3-yl]-2′,7-dimethyl-1H,2′H-3,4′-biindazole] | – | 4.4 | – | 0.5
15 | Cc1cccc2c(-c3cccc4nn(C)cc34)nn(-c3ccc(N4CCC(N5CCCC5=O)CC4)nc3)c12 [compound 21, 1-[1-(5-{2′,7-dimethyl-1H,2′H-[3,4′-biindazol]-1-yl}pyridin-2-yl)piperidin-4-yl]pyrrolidin-2-one] | 20 | 4.7 | 23 | 0.3
